The compounds below were run against T1, Recombinant human ASK1 kinase (Homo sapiens, UniProt Q99683) (assay: ASK1 kinase HTRF assay (KinEASE-STK)). Conditions: HTRF detection; 3 nM ASK1 kinase, 1 uM STK-substrate-biotin.
T1 construct: purchased Invitrogen Inc
T1 sequence (Q99683 1-1374): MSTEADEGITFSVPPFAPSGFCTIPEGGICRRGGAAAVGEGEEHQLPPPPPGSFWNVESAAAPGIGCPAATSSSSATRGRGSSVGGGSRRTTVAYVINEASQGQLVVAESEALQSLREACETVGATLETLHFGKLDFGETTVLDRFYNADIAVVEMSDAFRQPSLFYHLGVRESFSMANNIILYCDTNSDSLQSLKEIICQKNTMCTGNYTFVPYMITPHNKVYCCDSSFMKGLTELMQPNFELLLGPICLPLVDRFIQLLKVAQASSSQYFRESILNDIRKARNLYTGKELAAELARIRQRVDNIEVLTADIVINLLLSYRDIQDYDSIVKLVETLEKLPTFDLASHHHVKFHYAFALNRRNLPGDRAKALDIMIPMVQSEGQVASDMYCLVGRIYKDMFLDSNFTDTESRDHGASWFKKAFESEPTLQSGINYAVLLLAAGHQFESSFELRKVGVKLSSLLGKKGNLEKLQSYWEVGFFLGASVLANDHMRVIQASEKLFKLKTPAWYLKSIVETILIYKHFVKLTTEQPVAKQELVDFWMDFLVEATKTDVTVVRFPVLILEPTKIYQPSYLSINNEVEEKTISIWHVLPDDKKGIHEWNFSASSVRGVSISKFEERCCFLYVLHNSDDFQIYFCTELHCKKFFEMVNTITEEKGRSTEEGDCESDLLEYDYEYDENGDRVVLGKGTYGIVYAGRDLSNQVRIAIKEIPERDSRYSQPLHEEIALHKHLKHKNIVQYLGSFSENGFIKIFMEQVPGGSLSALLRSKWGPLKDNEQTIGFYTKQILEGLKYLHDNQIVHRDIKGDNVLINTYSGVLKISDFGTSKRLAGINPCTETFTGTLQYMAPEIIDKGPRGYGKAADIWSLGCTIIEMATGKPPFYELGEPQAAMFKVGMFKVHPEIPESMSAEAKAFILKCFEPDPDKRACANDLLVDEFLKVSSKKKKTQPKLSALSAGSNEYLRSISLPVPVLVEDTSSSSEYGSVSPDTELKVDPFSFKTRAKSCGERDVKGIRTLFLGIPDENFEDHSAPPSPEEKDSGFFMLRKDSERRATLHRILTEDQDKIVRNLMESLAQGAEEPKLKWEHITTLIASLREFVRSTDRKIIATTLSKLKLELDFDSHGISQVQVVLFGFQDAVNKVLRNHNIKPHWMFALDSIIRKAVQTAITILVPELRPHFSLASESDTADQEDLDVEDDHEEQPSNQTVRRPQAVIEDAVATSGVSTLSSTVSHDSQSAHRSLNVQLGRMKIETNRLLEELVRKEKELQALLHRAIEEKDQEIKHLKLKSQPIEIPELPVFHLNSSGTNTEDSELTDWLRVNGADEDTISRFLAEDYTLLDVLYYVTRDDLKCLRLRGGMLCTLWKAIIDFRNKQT
Format: biochemical
Protocol: Reagents: Recombinant human ASK1 kinase was from Invitrogen Inc. HTRF KinEASE™-STK S3 kit was obtained from Cisbio (Bedford, Mass.). All other reagents were of the highest grade commercially available.
Assay: The assay measures the phosphorylation level of a biotinylatd peptide substrate by the ASK1 kinase using HTRF detection. ASK1 kinase assay is based on HTRF KinEASE™-STK manual from Cisbio. Test compound, 1 uM STK-substrate-biotin, 3 nM of ASK1 kinase are incubated with 1*Kinase buffer with 5 mM MgCl2 and 1 mM DTT. 250 nM Sa-XL 665(4*) and STK-antibody-Cryptate work solution are added to stop the reaction and phosphorylated peptide substrate is detected using Envision 2104 Multilabeled reader from PerkinElmer. The fluorescence is measured at 615 nm (Cryptate) and 665 nm (XL665) and a ratio of 665 nm/615 nm is calculated for each well. The resulting TR-FRET level (a ratio of 665 nm/615 nm) is proportional to the phosphorylation level of substrate.

EC50 [nM] | SMILES
500 to 5000 | Cc1ccccc1-c1cnc(-c2cccc(-c3nncn3[C@H](C)CN)n2)o1 [Compound I-013, (R)-2-(3-(6-(5-o-Tolyloxazol-2-yl)pyridin-2-yl)-4H-1,2,4-triazol-4-yl)propan-1-amine]
50 to 500 | CC(C)c1ccc(-c2cnc(-c3cccc(-c4nncn4C(C)C)n3)o2)cc1 [Compound I-035]
≤ 50 | Cc1ccc(-c2cnc(-c3cccc(-c4nncn4[C@H](C)CO)n3)o2)cc1 [Compound I-030]
50 to 500 | CC(C)n1cnnc1-c1cccc(-c2ncc(-c3ccc(C#N)cc3)o2)n1 [Compound I-091]
≤ 50 | CC(C)n1cnnc1-c1cccc(-c2ncc(-c3ccc(N(C)C)cc3)o2)n1 [Compound I-057]
≤ 50 | C[C@H](CO)n1cnnc1-c1cccc(-c2ncc(-c3cccc(N)c3)o2)n1 [Compound I-064]
≤ 50 | Cc1ccccc1-c1cnc(-c2cccc(-c3nncn3[C@H](C)CO)n2)o1 [Compound I-025]
≤ 50 | C[C@H](CO)n1cnnc1-c1cccc(-c2ncc(-c3cccc(S(C)(=O)=O)c3)o2)n1 [Compound I-097]
50 to 500 | CC(C)n1cnnc1-c1cccc(-c2ncc(-c3cccc(C(N)=O)c3)o2)n1 [Compound I-009, 3-(2-[6-[4-(Propan-2-yl)-4H-1,2,4-triazol-3-yl]pyridin-2-yl]-1,3-oxazol-5-yl)benzamide]
50 to 500 | Cc1cccc(-c2cnc(-c3cccc(-c4nncn4C(C)C)n3)o2)c1 [Compound I-028]
≤ 50 | CC(C)n1cnnc1-c1cccc(-c2ncc(-c3ccc4c(c3)OCCO4)o2)n1 [Compound I-102]
50 to 500 | CC(C)n1cnnc1-c1cccc(-c2ncc(-c3nccs3)o2)n1 [Compound I-141]
≤ 50 | C[C@H](CO)n1cnnc1-c1cccc(-c2ncc(-c3ccccc3)o2)n1 [Compound I-018]
50 to 500 | CCc1cccc(-c2cnc(-c3cccc(-c4nncn4C(C)C)n3)o2)c1 [Compound I-037]
≤ 50 | CC(C)n1cnnc1-c1cccc(-c2ncc(-c3ccc(C(=O)O)cc3)o2)n1 [Compound I-094]
50 to 500 | CC(C)n1cnnc1-c1cccc(-c2ncc(-c3cccc(C4=CCCC4)c3)o2)n1 [Compound I-134]
50 to 500 | Cc1cccc(F)c1-c1cnc(-c2cccc(-c3nncn3C(C)C)n2)o1 [Compound I-044]
≤ 50 | C[C@H](CO)n1cnnc1-c1cccc(-c2ncc(-c3cccc(N4CCNCC4)c3)o2)n1 [Compound I-114]
50 to 500 | COc1cccc(-c2cnc(-c3cccc(-c4nncn4C(C)C)n3)o2)c1 [Compound I-070]
50 to 500 | CC(C)n1cnnc1-c1cccc(-c2ncc(-c3ccccc3C#N)o2)n1 [Compound I-089]
50 to 500 | Cc1ccc(-c2cnc(-c3cccc(-c4nncn4[C@@H](C)CO)n3)o2)c(F)c1 [Compound I-043]
≤ 50 | CC(=O)N1CCN(c2cccc(-c3cnc(-c4cccc(-c5nncn5C(C)C)n4)o3)c2)CC1 [Compound I-011, 1-(4-(3-(2-(6-(4-Isopropyl-4H-1,2,4-triazol-3-yl)pyridin-2-yl)oxazol-5-yl)phenyl)piperazin-1-yl)ethenone]

Second part, the compound before the results:

SMILES | EC50 [nM]
CC(C)n1cnnc1-c1cccc(-c2ncc(-c3nc4ccccc4o3)o2)n1 [Compound I-142] | 50 to 500
CCN1CCN(c2cccc(-c3cnc(-c4cccc(-c5nncn5C(C)C)n4)o3)c2)CC1 [Compound I-010, 5-(3-(4-Ethylpiperazin-1-yl)phenyl)-2-(6-(4-isopropyl-4H-1,2,4-triazol-3-yl)pyridin-2-yl)oxazole] | ≤ 50
CC(C)n1cnnc1-c1cccc(-c2ncc(-c3cccc(C(F)F)c3)o2)n1 [Compound I-087] | 50 to 500
CC(C)n1cnnc1-c1cccc(-c2ncc(-c3cccc(O)c3)o2)n1 [Compound I-073] | ≤ 50
Cc1ccccc1-c1cnc(-c2cccc(-c3nncn3C(C)C(F)(F)F)n2)o1 (stereo not drawn) [Compound I-027] | ≤ 50
CC(C)n1cnnc1-c1cccc(-c2ncc(-c3cccc(OC(F)F)c3)o2)n1 [Compound I-083] | 50 to 500
Cc1ccccc1-c1cnc(-c2cccc(-c3nncn3C(C)C)n2)o1 [Compound I-024] | ≤ 50
CC(C)n1cnnc1-c1cccc(-c2ncc(-c3cccc(N4CCC(N5CCOCC5)CC4)c3)o2)n1 [Compound I-122] | 50 to 500
CC(C)n1cnnc1-c1cccc(-c2ncc(-c3cccc(-c4ccncc4)c3)o2)n1 [Compound I-108] | ≤ 50
CC(C)n1cnnc1-c1cccc(-c2ncc(-c3cccc(OC(F)(F)F)c3)o2)n1 [Compound I-082] | 50 to 500
C[C@H](CO)n1cnnc1-c1cccc(-c2ncc(-c3ccc(S(C)(=O)=O)cc3)o2)n1 [Compound I-098] | ≤ 50
CC(C)n1cnnc1-c1cccc(-c2ncc(-c3cccc(C4CCNCC4)c3)o2)n1 [Compound I-123] | ≤ 50
C[C@H](CO)n1cnnc1-c1cccc(-c2ncc(-c3cccc(N4CCCC4)c3)o2)n1 [Compound I-126] | ≤ 50
c1ccc(-c2cnc(-c3cccc(-c4nncn4C4CC4)n3)o2)cc1 [Compound I-017] | 50 to 500
CC(C)n1cnnc1-c1cccc(-c2ncc(-c3cccc(C4CCCCC4)c3)o2)n1 [Compound I-131] | 500 to 5000
CCc1ccccc1-c1cnc(-c2cccc(-c3nncn3C(C)C)n2)o1 [Compound I-038] | ≤ 50

SMILES | EC50 [nM]
CC(C)n1cnnc1-c1cccc(-c2ncc(-c3cccc(C4CCCC4)c3)o2)n1 [Compound I-133] | 50 to 500
CC(C)n1cnnc1-c1cccc(-c2ncc(-c3ccncc3)o2)n1 [Compound I-021] | 50 to 500
CCc1ccc(-c2cnc(-c3cccc(-c4nncn4C(C)C)n3)o2)cc1 [Compound I-036] | 50 to 500
CC(C)n1cnnc1-c1cccc(-c2ncc(-c3cccc(N4CCC(N)C4)c3)o2)n1 (stereo not drawn) [Compound I-127] | ≤ 50
CC(C)n1cnnc1-c1cccc(-c2ncc(-c3ccccc3C(F)(F)F)o2)n1 [Compound I-085] | 50 to 500
CC(C)n1cnnc1-c1cccc(-c2ncc(-c3ccc(OC(F)F)cc3)o2)n1 [Compound I-084] | ≤ 50
Cc1ccc(-c2cnc(-c3cccc(-c4nncn4C(C)C)n3)o2)c(C)c1 [Compound I-031] | ≤ 50
CC(C)n1cnnc1-c1cccc(-c2ncc(-c3cccc(N4C5CCCC4CC5)c3)o2)n1 [Compound I-121] | 50 to 500
CC(C)N1CCN(c2cccc(-c3cnc(-c4cccc(-c5nncn5C(C)C)n4)o3)c2)CC1 [Compound I-117] | ≤ 50
CC(C)n1cnnc1-c1cccc(-c2ncc(-c3ccc4c(c3)CCCC4)o2)n1 [Compound I-103] | 50 to 500
CC(C)n1cnnc1-c1cccc(-c2ncc(-c3ccc(N4CCOCC4)cc3F)o2)n1 [Compound I-112] | 500 to 5000
CC(C)n1cnnc1-c1cccc(-c2ncc(-c3c(F)cccc3F)o2)n1 [Compound I-050] | ≤ 50
CCC(C)n1cnnc1-c1cccc(-c2ncc(-c3ccccc3C)o2)n1 (stereo not drawn) [Compound I-026] | 50 to 500
Cc1ccc(-c2cnc(-c3cccc(-c4nncn4[C@H](C)CO)n3)o2)c(F)c1 [Compound I-042] | ≤ 50
CC(C)n1cnnc1-c1cccc(-c2ncc(-c3cccc(C4CC4)c3)o2)n1 [Compound I-040] | ≤ 50
CC(C)n1cnnc1-c1cccc(-c2ncc(-c3cccc(OC[C@@H]4CN(C)CCO4)c3)o2)n1 [Compound I-080] | ≤ 50

From patent publication US20210179600A1, “OXAZOLE AND THIAZOLE DERIVATIVES AS INHIBITORS OF ASK1” (Hepagene Therapeutics (HK) Limited, priority 2017, published 2021)
